Measured values as given in patent publication US8703765B2, “Cyclic inhibitors of 11β-hydroxysteroid dehydrogenase 1” (Boehringer Ingelheim International GmbH, priority 2009, dated 2014).

These compounds were tested against T1, 11β-HSD1 (Homo sapiens, UniProt P28845) (assay: In vitro inhibition of 11β-HSD1, HTRF detection of cortisol generated by human liver microsomes). Conditions: cortisone 80 nM, NADPH 200 μM, 1 hour at 37° C., pH 6.0.
T1 construct: detecting cortisol generated from cortisterone by human liver microsomes; from tissue; host or cells: human liver microsomes
T1 sequence (P28845 whole entry): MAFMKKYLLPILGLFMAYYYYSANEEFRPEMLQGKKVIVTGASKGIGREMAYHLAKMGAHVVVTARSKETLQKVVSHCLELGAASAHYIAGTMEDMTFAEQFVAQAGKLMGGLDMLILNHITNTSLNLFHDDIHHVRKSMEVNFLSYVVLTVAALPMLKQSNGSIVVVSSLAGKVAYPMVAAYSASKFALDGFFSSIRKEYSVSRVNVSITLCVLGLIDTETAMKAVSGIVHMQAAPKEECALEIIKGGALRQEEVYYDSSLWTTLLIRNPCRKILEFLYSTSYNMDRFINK
Type: biochemical
Method: In vitro inhibition of 11 β-HSD1 by test compounds was determined with HTRF (Homogeneous Time-Resolved Fluorescence) technology (cisbio international, France) detecting cortisol generated from cortisterone by human liver microsomes. Briefly, compounds were incubated for 1 hour at 37° C. in Tris buffer (20 mM tris, 5 mM EDTA, pH 6.0) containing NADPH (200 μM) and cortisone (80 nM). Cortisol generated in the reaction was then detected with a competitive immunoassay, involving two HTRF conjugates: cortisol linked to XL665 and anti-cortisol antibody labeled with Europium cryptate. The incubation period for detection reaction was typically 2 hours. The amount of cortisol was determined by reading the time-resolved fluorescence of the wells (Ex 320/75 nm; Em 615/8.5 nm and 665/7.5 nm). The ratio of the two emission signals is then calculated (Em665*10000/Em615). […] Each assay also contained a calibration curve with cortisol to transform the fluorescent data into cortisol concentrations. Percent inhibition of each compound was determined relative to the carbenoxolone signal and IC50 curves were generated.
In Table 1 the 11β-HSD 1 inhibitory activities, determined as described above, are compiled.

Row | Compound | IC50
1 | Cc1ncc(-c2ccc([C@H](C3CC3)N3CC[C@](CC(C)(C)O)(c4ccccc4)OC3=O)cc2)cn1 [Example 11, 3-{(S)-Cyclopropyl-[4-(2-methyl-pyrimidin-5-yl)-phenyl]methyl}-(S)-6-(2-hydroxy-2-methyl-propyl)-6-phenyl-[1,3]oxazinan-2-one] | 54 nM
2 | CC(C)(O)C[C@]1(c2ccccc2)CCN([C@H](c2ccc(-c3ccn(C4CC4)c(=O)c3)cc2)C2CC2)C(=O)O1 [Example 9, 3-{(S)-Cyclopropyl-[4-(1-cyclopropyl-2-oxo-1,2-dihydro-pyridin-4-yl)-phenyl]-methyl}-(S)-6-(2-hydroxy-2-methyl-propyl)-6-phenyl-[1,3]oxazinan-2-one] | 38 nM
3 | CC(C)(O)CC1(c2ccccc2)CCN(C(c2ccc(Br)cc2)C2CC2)C(=O)O1 (stereo not drawn) [Example 1, 3-[(4-Bromo-phenyl)-cyclopropyl-methyl]-6-(2-hydroxy-2-methyl-propyl)-6-phenyl-[1,3]oxazinan-2-one] | 65 nM
4 | CC(C)(O)C[C@]1(c2ccccc2)CCN([C@H](c2ccc(Br)cc2)C2CC2)C(=O)O1 [Example 6, 3-[(S)-(4-Bromo-phenyl)-cyclopropyl-methyl]-(S)-6-(2-hydroxy-2-methyl-propyl)-6-phenyl-[1,3]oxazinan-2-one] | 53 nM
5 | CC(C)(O)C[C@@]1(c2ccccc2)CCN([C@H](c2ccc(Br)cc2)C2CC2)C(=O)O1 (racemic) [Example 2, 3-[(4-Bromo-phenyl)-cyclopropyl-methyl]-6-(2-hydroxy-2-methyl-propyl)-6-phenyl-[1,3]oxazinan-2-one] | 960 nM
6 | Cn1cc(-c2ccc([C@H](C3CC3)N3CC[C@](CC(C)(C)O)(c4ccccc4)OC3=O)cc2)ccc1=O [Example 10, 3-{(S)-Cyclopropyl-[4-(1-methyl-6-oxo-1,6-dihydro-pyridin-3-yl)-phenyl]-methyl}-(S)-6-(2-hydroxy-2-methyl-propyl)-6-phenyl-[1,3]oxazinan-2-one] | 70 nM
7 | Cc1ccc(-c2ccc([C@H](C3CC3)N3CC[C@](CC(C)(C)O)(c4ccccc4)OC3=O)cc2)nn1 [Example 8, 3-{(S)-Cyclopropyl-[4-(6-methyl-pyridazin-3-yl)-phenyl]methyl}-(S)-6-(2-hydroxy-2-methyl-propyl)-6-phenyl-[1,3]oxazinan-2-one] | 29 nM
8 | Cn1cc(-c2ccc(C(C3CC3)N3CCC(CC(C)(C)O)(c4ccccc4)OC3=O)cc2)ccc1=O (stereo not drawn) [Example 5, 3-{Cyclopropyl-[4-(1-methyl-6-oxo-1,6-dihydro-pyridin-3-yl)-phenyl]-methyl}-6-(2-hydroxy-2-methyl-propyl)-6-phenyl-[1,3]oxazinan-2-one] | 35 nM

Now from value to compound:

Row | IC50 | Compound
9 | > 4500 nM | Cn1ccc(-c2ccc([C@@H](C3CC3)N3CC[C@@](CC(C)(C)O)(c4ccccc4)OC3=O)cc2)cc1=O [Example 3b, 3-{(R)-cyclopropyl-[4-(1-methyl-2-oxo-1,2-dihydro-pyridin-4-yl)-phenyl]methyl}-(R)-6-(2-hydroxy-2-methyl-propyl)-6-phenyl-[1,3]oxazinan-2-one]
10 | > 10000 nM | Cn1ccc(-c2ccc([C@H](C3CC3)N3CC[C@@](CC(C)(C)O)(c4ccccc4)OC3=O)cc2)cc1=O (racemic) [Example 4, 3-{Cyclopropyl-[4-(1-methyl-2-oxo-1,2-dihydro-pyridin-4-yl)-phenyl]-methyl}-6-(2-hydroxy-2-methyl-propyl)-6-phenyl-[1,3]oxazinan-2-one]
11 | 111 nM | Cn1ccc(-c2ccc(C(C3CC3)N3CCC(CC(C)(C)O)(c4ccccc4)OC3=O)cc2)cc1=O (stereo not drawn) [Example 3, 3-{Cyclopropyl-[4-(1-methyl-2-oxo-1,2-dihydro-pyridin-4-yl)-phenyl]-methyl}-6-(2-hydroxy-2-methyl-propyl)-6-phenyl-[1,3]oxazinan-2-one]
12 | 64 nM | Cn1ccc(-c2ccc([C@H](C3CC3)N3CC[C@](CC(C)(C)O)(c4ccccc4)OC3=O)cc2)cc1=O [Example 7, 3-{(S)-Cyclopropyl-[4-(1-methyl-2-oxo-1,2-dihydro-pyridin-4-yl)-phenyl]-methyl}-(S)-6-(2-hydroxy-2-methyl-propyl)-6-phenyl-[1,3]oxazinan-2-one]
